Reference: US20090246212A1, “DEVELOPMENT OF METHOD FOR SCREENING FOR DRUG CAPABLE OF IMPROVING PRODUCTION OF REGULATORY T CELLS AND METHOD FOR PRODUCING REGULATORY T CELLS USING IMMUNOSUPPRESSIVE MACROLIDE ANTIBIOTIC” (KYOTO UNIVERSITY, priority 2005, published 2009)

Experiments:
Type in all cases: cell-based, human
[1] = test system: CD45RA^+CD25^+CD4^+ T cells; assay: Expansion culture of CD45RA^+CD25^+CD4^+ T cells with allogenic PBMCs and IL-2, everolimus added; conditions: everolimus 1000 nM from the start of cultivation
Description: (§1) CD45RA^+CD25^+CD4^+ T cells or CD45RA^+CD25^−CD4^+ T cells in human peripheral blood (5×10̂4 cells/well) were stimulated with 1×10̂5 cells/well radiated (40 Gy) allogenic PBMCs in a 96-well round-bottomed culture plate containing 200 μl per well of a proliferation medium (AlyS505N (produced by Cell Science & Technology Institute) supplemented with 2% human AB serum) in the presence of human IL-2 (1000 U/ml, produced by Cell Science & Technology Institute).
(§2) Everolimus (100 nM or 1000 nM, produced by Novartis Pharma) was added to the medium from the start of cultivation. The everolimus was purified as follows: Certican 0.25 mg tablet (produced by Novartis Pharma) was milled and dissolved in acetone. Then, the solution was filtered, the filtrate was evaporated while rotating, and the precipitate was vacuum-dried. The extract obtained was dissolved in DMF and separated by HPLC (column C18 4 μm, 150×2.1 mm). After separation, the everolimus was freeze-dried and purified.
(§3) Every 3 to 4 days, half of the medium was replaced with a fresh proliferation medium containing IL-2. If necessary, the cells were separated and repeatedly re-stimulated with radiated (40 Gy) allogenic PBMC every 10 to 14 days. Fifty days after the start of cultivation, the cells were collected and used for functional assay.

[2] = test system: CD45RA^+CD25^+CD4^+ T cell line; assay: Suppression assay ([^3H] thymidine uptake) of the everolimus-cultured CD45RA^+CD25^+CD4^+ T cell line; conditions: cultivation in the presence of everolimus, 50 days; compared with controls
Description: as §1
as §2, with “The extract obtained was dissolved in DMF and separated by HPLC (column C18 4 μm, 150×2.1 mm). After separation, the everolimus was freeze-dried and purified.” left out
(§4) The indicated number of cells of the expanded CD45RA^+CD25^+CD4^+ T cell line or expanded CD45RA^+CD25^−CD4^+ T cell line, alone or along with autologous responder CD4^+ T cells (5×10̂4 cells/well), were stimulated with radiated (40 Gy) PBMCs (1×10̂5 cells/well) obtained from the same individual as the allogenic PBMCs used for the cultivation, in a proliferation medium in a round-bottomed 96-well microplate. […] Subsequently, the cells were recovered, and [^3H] thymidine uptake was measured using 1450 Microbeta TriLux (Wallac).

[3] = test system: CD45RA^+CD25^−CD4^+ T cell line; assay: Suppression assay ([^3H] thymidine uptake) of the everolimus-cultured CD45RA^+CD25^−CD4^+ T cell line; conditions: cultivation in the presence of everolimus, 50 days; compared with the control
Description: as §1
as §2, with “The extract obtained was dissolved in DMF and separated by HPLC (column C18 4 μm, 150×2.1 mm). After separation, the everolimus was freeze-dried and purified.” left out
as §4

[4] = test system: CD45RA^+CD25^−CD4^+ T cells; assay: Expansion culture of CD45RA^+CD25^−CD4^+ T cells with allogenic PBMCs and IL-2, everolimus added; conditions: everolimus 100 nM or 1000 nM from the start of cultivation
Description: as §1, §2, §3

In the case of `CO[C@H]1C[C@@H]2CC[C@@H](C)[C@@](O)(O2)C(=O)C(=O)N2CCCC[C@H]2C(=O)O[C@H]([C@H](C)C[C@@H]2CC[C@@H](OCCO)[C@H](OC)C2)CC(=O)[C@H](C)/C=C(\C)[C@@H](O)[C@@H](OC)C(=O)[C@H](C)C[C@H](C)/C=C/C=C/C=C/1C` [everolimus, 42-O-(2-hydroxy)ethyl-rapamycin], the “proliferation of CD45RA^+CD25^+CD4^+ T cells” value [1] is reported as “suppressed”, the “T cell line's effect on proliferation of CD4^+ T cells in response to alloantigen-presenting cells” value [2] is reported as “more strongly suppressed” and the “T cell line's effect on proliferation of CD4^+ T cells in response to alloantigen-presenting cells” value [3] is reported as “more strongly suppressed”. The “proliferation of CD45RA^+CD25^−CD4^+ T cells” value [4] was “enhanced”.
